Data from patent US5891871A, “Substituted 2,3-benzodiazepin-4-ones and the use thereof” (CoCensys, Inc., priority 1997, dated 1999).

How the values were obtained:
AMPA receptor = AMPA receptor antagonism / positive modulation: AMPA induced current in Xenopus oocytes expressing rat whole brain poly(A)+ RNA (electrophysiology); type: cell-based; conditions: for AMPA positive potentiation, 200% @ μM: concentration at which AMPA current is potentiated 200%; for IC50: oocytes expressing rat brain AMPA receptors
Experimental: The novel substituted 2,3-benzodiazepin-4-ones were assessed by electrophysiological assays in Xenopus oocytes expressing rat whole brain poly(A)^+ RNA (see Keana et al, J. Med. Chem. 38. 4367-4379 (1995)) or in cultured rat cortical neurons (see Woodward et. al. Mol. Pharmacol. 47: 568-581 (1995)) for AMPA receptor activity. Compounds which are useful for treating or preventing the adverse consequences of stroke, hypoglycemia, neurodegenerative disorders, anxiety, epilepsy or psychosis, or which induce analgesia, will inhibit the currents across the membranes of the oocyte expressing AMPA receptors. However, if the compound potentiates currents across the oocyte membrane, then the compound is expected to be useful in enhancing cognition or treating schizophrenia or neurodegenerative diseases such as Parkinson's Disease.
The ability of AMPA receptor antagonists or positive modulators to inhibit or enhance AMPA induced current in oocyte expressing neuronal AMPA receptor was determined using procedures fully described in Keana et al, J. Med. Chem. 38: 4367-4379 (1995). […] The compounds of examples 22, 30 and 31 are positive modulators of AMPA receptor. They potentiate the AMPA current 200% at a concentration of 11, 10 and 11 μM, respectively.

[1] = literature; cited from earlier work
AMPA receptors = conditions: literature; cited from earlier work
[2] = literature; cited from earlier work; remark: listed apart in the source
[3] = literature; cited from earlier work; remark: listed apart in the source
mice = assay: Maximal Electroshock-induced Seizure (MES) test; type: in vivo; conditions: for ED50: Mus musculus, mice, iv; for anticonvulsant activity in the MES experiment: in words
Experimental: Seizures are induced by application of current (50 mA, 60 pulses/sec, […], 1 sec duration, .c.) through saline-coated corneal electrodes using a Ugo Basile ECT device (Model 7801). […] A tonic seizure is defined as a hindlimb extension in excess of 90 degrees from the plane of the body. Results are treated in a quintal manner.

rat = conditions: literature; cited from earlier work
[4] = literature; cited from earlier work; remark: listed apart in the source

IC50 (AMPA receptor) | Compound | AMPA positive potentiation, 200% @ μM (AMPA receptor) | other results
 | CCC(CC)N1N=C(c2ccccc2)c2cc3c(cc2CC1=O)OCO3 [Example 22, 7,8-Methylenedioxy-3-(3-pentyl)-1-phenyl-3,5-dihydro-2,3-benzodiazepin-4(4H)-one] | 11 µM | 
20 µM | COc1cc(C2=NNC(=O)Cc3cc4c(cc32)OCO4)ccc1[N+](=O)[O-] [Example 56, 7,8-Methylenedioxy-1-(3-methoxy-4-nitrophenyl)-3,5-dihydro-2,3-benzodiazepin-4(4H)-one] |  | 
26 µM | CNC(=O)N1N=C(c2ccccc2)c2cc3c(cc2CC1=O)OCO3 [Example 15, 7,8-Methylenedioxy-3-methylaminocarbonyl-1-phenyl-3,5-dihydro-2,3-benzodiazepin-4(4H)-one] |  | 
 | CC(=O)N1N=C(c2ccc(N)cc2)c2cc3c(cc2C[C@H]1C)OCO3 [LY300164] |  | anticonvulsant activity [1]: anticonvulsant activity; AMPA receptor antagonism (AMPA receptors): noncompetitive antagonist of AMPA receptors
 | CC1Cc2cc3c(cc2C(c2ccc(N)cc2)=NN1)OCO3 (centres unmarked) |  | central nervous effect [2]: CNS stimulating activity
 | O=C1Cc2cc3c(cc2C(c2ccccc2)=NN1C1CCCCC1)OCO3 [Example 31, 3-Cyclohexyl-7,8-methylenedioxy-1-phenyl-3,5-dihydro-2,3-benzodiazepin-4(4H)-one] | 11 µM | 
 | O=C(c1ccc2c(c1)OCO2)N1CCCCC1 [BDP, 1-(1,3-benzodioxol-5-ylcarbonyl) piperidine] |  | memory enhancement [3]: enhance memory
1 µM | Cc1cc(C2=NNC(=O)Cc3cc4c(cc32)OCO4)ccc1N [Example 61, 1-(4-Amino-3-methylphenyl)-7,8-methylenedioxy-3,5-dihydro-2,3-benzodiazepin-4(4H)-one] |  | ED50 (mice): 2.7 mg/kg; anticonvulsant activity in the MES experiment (mice): active as anticonvulsants
4 µM | CC1C(=O)NN=C(c2ccc(N)cc2)c2cc3c(cc21)OCO3 (centres unmarked) [Example 45, 1-(4-Aminophenyl)-5-methyl-7,8-methylenedioxy-3,5-dihydro-2,3-benzodiazepin-4(4H)-one] |  | 
 | CCCC(C)N1N=C(c2ccccc2)c2cc3c(cc2CC1=O)OCO3 (centres unmarked) [Example 25, 7,8-Methylenedioxy-3-(2-pentyl)-1-phenyl-3,5-dihydro-2,3-benzodiazepin-4(4H)-one] | 160 µM | 
10 µM | CC1C(=O)NN=C(c2ccc3c(c2)OCO3)c2cc3c(cc21)OCO3 (centres unmarked) [Example 48, 5-Methyl-1-(3,4-methylenedioxyphenyl)-7,8-methylenedioxy-3,5-dihydro-2,3-benzodiazepin-4(4H)-one] |  | 
15 µM | Cc1ccc(C2=NNC(=O)Cc3cc4c(cc32)OCO4)cc1 [Example 9, 7,8-Methylenedioxy-1-(4-methylphenyl)-3,5-dihydro-2,3-benzodiazepin-4(4H)-one] |  | 
 | CCCC(CC)N1N=C(c2ccccc2)c2cc3c(cc2CC1=O)OCO3 (centres unmarked) [Example 33, 3-(3-Hexyl)-7,8-methylenedioxy-1-phenyl-3,5-dihydro-2,3-benzodiazepin-4(4H)-one] | 24 µM | 
3 µM | Nc1ccc(C2=NNC(=O)Cc3cc4c(cc32)OCO4)cc1 [Example 14, 1-(4-Aminophenyl)-7,8-methylenedioxy-3,5-dihydro-2,3-benzodiazepin-4(4H)-one] |  | ED50 (mice): 2.4 mg/kg; anticonvulsant activity in the MES experiment (mice): active as anticonvulsants
 | O=C1Cc2cc3c(cc2C(c2ccccc2)=NN1C1CCCCCC1)OCO3 [Example 30, 3-Cycloheptyl-7,8-methylenedioxy-1-phenyl-3,5-dihydro-2,3-benzodiazepin-4(4H)-one] | 10 µM | 
 | CC1=NN=C(c2ccc(N)cc2)c2cc3c(cc2C1)OCO3.Cl [GYKI 52466, 1-(4-aminophenyl)-4-methyl-7,8-methylenedioxy-5H-2,3-benzodiazepine-hydrochloride] |  | anticonvulsant activity [1]: effective anticonvulsant; neuroprotection in rat global ischemia (rat): effective neuroprotective agent
 | CCC(C)N1N=C(c2ccccc2)c2cc3c(cc2CC1=O)OCO3 (centres unmarked) [Example 21, 3-(2-Butyl)-7,8-methylenedioxy-1-phenyl-3,5-dihydro-2,3-benzodiazepin-4(4H)-one] | 12 µM | 
4 µM | Nc1ccc(C2=NNC(=O)Cc3cc4c(cc32)OCO4)c(Cl)c1 [Example 62, 1-(4-Amino-2-chlorophenyl)-7,8-methylenedioxy-3,5-dihydro-2,3-benzodiazepin-4(4H)-one] |  | ED50 (mice): 3.2 mg/kg; anticonvulsant activity in the MES experiment (mice): active as anticonvulsants
 | CC(C)N1N=C(c2ccccc2)c2cc3c(cc2CC1=O)OCO3 [Example 18, 3-Isopropyl-7,8-methylenedioxy-1-phenyl-3,5-dihydro-2,3-benzodiazepin-4(4H)-one] | 30 µM | 
0.8 µM | Nc1ccc(C2=NNC(=O)Cc3cc4c(cc32)OCO4)cc1Cl [Example 63, 1-(4-Amino-3-chlorophenyl)-7,8-methylendioxy-3,5-dihydro-2,3-benzodiazepin-4(4H)-one] |  | 
 | NS(=O)(=O)c1cccc2c1c([N+](=O)[O-])cc1nc(O)c(O)nc12 [NBQX, 2,3-dihydroxy-6-nitro-7-sulfamoylbenzo[f]quinoxaline] |  | prevention of global and focal ischemic damage [4]: effective in preventing global and focal ischemic damage
